Source: patent US8501992B2, “Hydroxyphenyl sulfonamides as antiapoptotic bcl inhibitors” (Bristol-Myers Squibb Company, priority 2008, dated 2013)

What was measured:
Format in all cases: binding
[1] = target: T1, Bcl-2 (Homo sapiens, UniProt P10415); assay: Bcl2/Bim fluorescence polarization assay (FPA); settings: BIM BH3 peptide 5 nM, Bcl-2 11 nM, Ki calculated from FPA data
T1 construct: without their C-terminal transmembrane domain; GST; made in house
Text: (§1) Compounds were profiled for their ability to disrupt in vitro binding interactions in fluorescence polarization assays (FPAs) using synthetic fluorochrome-labeled Bcl homology 3 (BH3) peptides derived from BIM [(FAM)-Ahx-[…]-NH2 (SEQ ID NO: 1) (GenBank Accession No. O43521)] or BAK [Ac-GQVGRQLAIIGE-LYS(FAM)-INR-NH2 (SEQ ID NO:2) (GenBank Accession No. Q16611) amino acid sequences and four bacterial recombinant proteins [Bcl-b (GenBank Accession No. Q9HD36), Bcl-2 (GenBank Accession No. P10415), Bcl-Xl (GenBank Accession No. Q07817), Mcl-1 (GenBank Accession No. Q07820)] without their C-terminal transmembrane domain. Proteins were purified from bacterial lysates using their glutathione S-transferase (GST)-tag (Bcl-b, Bcl-2, Mcl-1) or His6-tag (Bcl-Xl) and following one-step affinity chromatography procedures. Dissociation constants (Kd) for peptide binding protein were determined by fluorescence polarization in FPAs measuring BIM BH3 peptide binding Bcl-b, Mcl-1 or Bcl-2 protein or BAK BH3 peptide binding Bcl-Xl protein. The Kd values were generated by fitting the experimental data using a sigmoidal dose-response nonlinear regression model.
(§2) Compound inhibitory concentration values, IC50 (50% reduction in fluorescence polarization), were determined using fluorochrome-labeled BH3 peptides and recombinant Bcl proteins in fluorescence polarization assays (FPAs). Compounds diluted in DMSO (0.5 ul) were transferred (in duplicate) to individual wells of a 384-well plate. The fluorochrome-labeled peptide was added followed by recombinant protein addition. Each binding FPA reaction (50 ul) contained BIM BH3 peptide (5 nM) or BAK BH3 peptide (1.5 nM) and Bcl-b (40 nM), Mcl-1 (28 nM), Bcl-2 (11 nM) or Bcl-Xl. (5 nM) protein suspended in assay buffer [20 mM sodium phosphate, pH 7.4, 1 mM EDTA, 50 mM NaCl., 0.05% Pluronic F68]. Reaction mixtures were incubated at ambient temperature for 60 minutes prior to measuring polarization (mP) using an Analyst (LJL, Molecular Devices, Sunnyvale, Calif.) programmed to detect an emission wavelength of 530 nm after excitation (excitation wavelength=485 nm).
(§3) Competitive compound inhibition constants (Ki) were calculated using FPA experimental data and a mathematical equation, Ki=[I]50/([L]50/Kd+[P]0/Kd+1), where [I]50 denotes free inhibitor concentration at 50% inhibition, [L]50 is free labeled ligand concentration at 50% inhibition, [P]0 is free protein concentration at 0% inhibition, and Kd is the dissociation constant of the protein-ligand complex.

[2] = target: T2, Bcl-b (Homo sapiens, UniProt Q9HD36); assay: Bclb/Bim fluorescence polarization assay (FPA); settings: BIM BH3 peptide 5 nM, Bcl-b 40 nM, Ki calculated from FPA data
T2 construct: without their C-terminal transmembrane domain; GST; made in house
T2 sequence (Q9HD36 1-182 limits assumed): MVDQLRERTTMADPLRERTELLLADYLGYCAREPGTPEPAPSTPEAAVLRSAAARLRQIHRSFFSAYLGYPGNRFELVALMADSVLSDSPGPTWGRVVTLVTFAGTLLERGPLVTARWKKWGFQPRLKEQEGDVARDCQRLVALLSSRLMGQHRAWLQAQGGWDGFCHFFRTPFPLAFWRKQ
Text: as §1, §2, §3

[3] = target: T3, Mcl-1 (Homo sapiens, UniProt Q07820); assay: Mcl-1/Bim fluorescence polarization assay (FPA); settings: BIM BH3 peptide 5 nM, Mcl-1 28 nM, Ki calculated from FPA data
T3 construct: without their C-terminal transmembrane domain; GST; made in house
Text: as §1, §2, §3

T3 sequence (Q07820 1-327 limits assumed): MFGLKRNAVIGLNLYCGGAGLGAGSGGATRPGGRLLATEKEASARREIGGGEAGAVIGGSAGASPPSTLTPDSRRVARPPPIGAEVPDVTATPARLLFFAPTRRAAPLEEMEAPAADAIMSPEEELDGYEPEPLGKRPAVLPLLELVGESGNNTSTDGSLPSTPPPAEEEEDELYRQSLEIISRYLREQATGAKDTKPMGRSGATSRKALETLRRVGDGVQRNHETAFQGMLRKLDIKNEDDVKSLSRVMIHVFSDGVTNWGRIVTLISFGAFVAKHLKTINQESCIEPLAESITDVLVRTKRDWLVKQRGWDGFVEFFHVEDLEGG
T1 sequence (P10415 1-211 limits assumed): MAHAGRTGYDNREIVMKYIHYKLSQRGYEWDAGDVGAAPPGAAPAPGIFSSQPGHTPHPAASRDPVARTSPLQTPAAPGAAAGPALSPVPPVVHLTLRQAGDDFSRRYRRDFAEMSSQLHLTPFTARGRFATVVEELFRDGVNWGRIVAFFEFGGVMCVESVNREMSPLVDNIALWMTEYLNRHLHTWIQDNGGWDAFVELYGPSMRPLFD

| SMILES | Ki [1] [nM] | Ki [2] [nM] | Ki [3] [nM] |
| --- | --- | --- | --- |
| CC(C)CN(Cc1ccc(CN(CC(C)C)S(=O)(=O)c2cc(Cl)cc(Cl)c2O)cc1)S(=O)(=O)c1cc(Cl)cc(Cl)c1O [Example 97, N-Isobutyl-N-{4-[(isobutyl-(3,5-dichloro-2-hydroxybenzene)sulfonyl-amino)-methyl]-benzyl}-(3,5-dichloro-2-hydroxybenzene)sulfonamide] | 110 | 70 | 100 |
| O=S(=O)(NCc1ccc(CN(Cc2ccc(F)cc2)S(=O)(=O)c2cc(Cl)cc(Cl)c2O)cc1)c1cc(Cl)cc(Cl)c1 [Example 98, 3,5-Dichloro-N-(4-((3,5-dichlorophenylsulfonamido)methyl)benzyl)-N-(4-fluorobenzyl)-2-hydroxybenzenesulfonamide] | 230 | 160 | 280 |
| O=C(c1ccc(CN(Cc2ccc(F)cc2)S(=O)(=O)c2cc(Cl)cc(Cl)c2O)cc1)N(Cc1ccc(F)cc1)Cc1cc(Cl)cc(Cl)c1 [Example 106, 4-((3,5-Dichloro-N-(4-fluorobenzyl)-2-hydroxyphenylsulfonamido)methyl)-N-(3,5-dichlorobenzyl)-N-(4-fluorobenzyl)benzamide] | 40 | 40 | 40 |
| CC(C)N(Cc1ccccc1)C(=O)c1ccc(CN(Cc2ccc(F)cc2)S(=O)(=O)c2cc(Cl)cc(Cl)c2O)cc1 [Example 107, N-Benzyl-4-((3,5-dichloro-N-(4-fluorobenzyl)-2-hydroxyphenylsulfonamido)methyl)-N-isopropylbenzamide] | 480 | 210 | 520 |
| O=C(c1ccc(CN(Cc2ccc(F)cc2)S(=O)(=O)c2cc(Cl)cc(Cl)c2O)cc1)N1CCCCC1 [Example 130] | 840 | 440 | 2060 |
| CC(C)CCNC(=O)c1ccc(CN(Cc2ccc(F)cc2)S(=O)(=O)c2cc(Cl)cc(Cl)c2O)cc1 [Example 135, 4-((3,5-Dichloro-N-(4-fluorobenzyl)-2-hydroxyphenylsulfonamido)methyl)-N-isopentylbenzamide] | 610 | 280 | 490 |
| CN(CCc1ccccc1)C(=O)c1ccc(CN(Cc2ccc(F)cc2)S(=O)(=O)c2cc(Cl)cc(Cl)c2O)cc1 [Example 137, 4-((3,5-Dichloro-N-(4-fluorobenzyl)-2-hydroxyphenylsulfonamido)methyl)-N-methyl-N-phenethylbenzamide] | 250 | 220 | 480 |
| CCCCNC(=O)c1ccc(CN(Cc2ccc(F)cc2)S(=O)(=O)c2cc(Cl)cc(Cl)c2O)cc1 [Example 138, N-Butyl-4-((3,5-dichloro-N-(4-fluorobenzyl)-2-hydroxyphenylsulfonamido)methyl)-benzamide] | 820 | 450 | 1760 |
| O=C(c1ccc(CN(Cc2ccc(F)cc2)S(=O)(=O)c2cc(Cl)cc(Cl)c2O)cc1)N1CCN(c2cnccn2)CC1 [Example 140, 3,5-Dichloro-N-(4-fluorobenzyl)-2-hydroxy-N-(4-(4-(pyrazin-2-yl)piperazine-1-carbonyl)benzyl)benzenesulfonamide] | 660 | 500 | 1730 |
| O=C(N[C@H]1C[C@@H]1c1ccccc1)c1ccc(CN(Cc2ccc(F)cc2)S(=O)(=O)c2cc(Cl)cc(Cl)c2O)cc1 [Example 143, 4-((3,5-Dichloro-N-(4-fluorobenzyl)-2-hydroxyphenylsulfonamido)methyl)-N-((1S,2R)-2-phenylcyclopropyl)benzamide] | 370 | 170 | 450 |
| NS(=O)(=O)c1ccc(CNC(=O)c2ccc(CN(Cc3ccc(F)cc3)S(=O)(=O)c3cc(Cl)cc(Cl)c3O)cc2)cc1 [Example 147, 4-((3,5-Dichloro-N-(4-fluorobenzyl)-2-hydroxyphenylsulfonamido)methyl)-N-(4-sulfamoylbenzyl)benzamide] | 960 | 450 | 1730 |
| CN(C)c1ccc(CNC(=O)c2ccc(CN(Cc3ccc(F)cc3)S(=O)(=O)c3cc(Cl)cc(Cl)c3O)cc2)cc1 [Example 150, 4-((3,5-Dichloro-N-(4-fluorobenzyl)-2-hydroxyphenylsulfonamido)methyl)-N-(4-(dimethylamino)benzyl)benzamide] | 440 | 200 | 460 |
| O=C(c1ccc(N(Cc2ccc(F)cc2)S(=O)(=O)c2cc(Cl)cc(Cl)c2O)cc1)N(Cc1ccc(F)cc1)Cc1cc(Cl)cc(Cl)c1 [Example 175, 4-(3,5-Dichloro-N-(4-fluorobenzyl)-2-hydroxyphenylsulfonamido)-N-(3,5-dichlorobenzyl)-N-(4-fluorobenzyl)benzamide] | 40 | 60 | 30 |
| O=S(=O)(c1cc(Cl)cc(Cl)c1)N(CCO)Cc1ccc(CN(Cc2ccc(F)cc2)S(=O)(=O)c2cc(Cl)cc(Cl)c2O)cc1 [Example 176] | 440 | 180 | 480 |
| CC(C)CN(Cc1cccc(CN(Cc2ccc(-c3ccc(F)cc3)cc2)S(=O)(=O)c2cc(Cl)cc(Cl)c2O)c1)C(=O)c1ccc2[nH]c(=O)c(=O)[nH]c2c1 [Example 190, N-(3-((3,5-Dichloro-N-((4′-fluorobiphenyl-4-yl)methyl)-2-hydroxyphenylsulfonamido)methyl)-benzyl)-N-isobutyl-2,3-dioxo-1,2,3,4-tetrahydroquinoxaline-6-carboxamide] | 180 | 150 | 550 |
| CC(C)CN(Cc1cccc(CN(Cc2ccc(-c3ccc(F)cc3)cc2)S(=O)(=O)c2cc(Cl)cc(Cl)c2O)c1)C(=O)c1nc2ccccc2s1 [Example 191, N-(3-((3,5-Dichloro-N-((4′-fluorobiphenyl-4-yl)methyl)-2-hydroxyphenylsulfonamido)methyl)-benzyl)-N-isobutylbenzo[d]thiazole-2-carboxamide] | 110 | 180 | 530 |
| CC(C)NC(=O)c1cc(Cl)c(O)c(S(=O)(=O)N(Cc2ccc(F)cc2)Cc2cccc(-c3ccc(Cl)cc3)c2)c1 [Example 211, 3-Chloro-5-(N-((4′-chlorobiphenyl-3-yl)methyl)-N-(4-fluorobenzyl)-sulfamoyl)-4-hydroxy-N-isopropylbenzamide] | 480 | 160 | 530 |
| O=C(NCCCO)c1cc(Cl)c(O)c(S(=O)(=O)N(Cc2ccc(F)cc2)Cc2cccc(-c3ccc(Cl)cc3)c2)c1 [Example 213, 3-Chloro-5-(N-((4′-chlorobiphenyl-3-yl)methyl)-N-(4-fluorobenzyl)-sulfamoyl)-4-hydroxy-N-(3-hydroxypropyl)benzamide] | 1220 | 470 | 2700 |
| O=C(NCC(O)CO)c1cc(Cl)c(O)c(S(=O)(=O)N(Cc2ccc(F)cc2)Cc2cccc(-c3ccc(Cl)cc3)c2)c1 (stereo not drawn) [Example 214, 3-Chloro-5-(N-((4′-chlorobiphenyl-3-yl)methyl)-N-(4-fluorobenzyl)-sulfamoyl)-N-(2,3-dihydroxypropyl)-4-hydroxybenzamide] | 1800 | 610 | 1640 |
| O=C(NCc1ccccc1)c1cc(Cl)c(O)c(S(=O)(=O)N(Cc2ccc(F)cc2)Cc2ccc(Oc3ccc(C(F)(F)F)cc3)cc2)c1 [Example 219, N-Benzyl-3-chloro-5-(N-(4-fluoro-benzyl)-N-(4-(4-(trifluoromethyl)-phenoxy)benzyl)sulfamoyl)-4-hydroxybenzamide] | 170 | 120 | 40 |
